Reference: patent US6541463B1, “Inhibitors of type 5 and type 3 17β-hydroxysteroid dehydrogenase and methods for their use” (Endorecherche, Inc., priority 1998, dated 2003)

Experiments:
[1] = tested on: Shionogi mouse mammary carcinoma cells; assay: Androgenic activity: stimulation of proliferation of Shionogi cells; format: cell-based; conditions: Table 4′
Procedure: In column 9, the androgenic activity of preferred type 5 inhibitors expressed as the percentage of stimulation of proliferation of Shionogi cells at concentrations of 10^−7 M (left number) and 10^−6 M (right number) of inhibitor. The manner in which the stimulation is determined is described in “Other Tests; B-Androgenic/Antiandrogenic Activity”. Lower numbers are desirable. ND means that a determination was not done.
(§1) Androgenic/antiandrogenic activity of some preferred compounds has been measured using the Shionogi mouse mammary carcinoma cells.
(§2) Minimal essential culture medium (MEM), non-essential amino acids, and fetal calf serum were purchased from Flow Laboratories. In order to remove endogenous steroids, serum was incubated overnight at 4° C. with 1% activated charcoal (Norit A, Fisher) and 0.1% Dextran T-70 (Pharmacia). A 2-h supplementary adsorption was performed at 25° C. in order to further remove protein-bound steroids. Serum was also inactivated by a 20-min incubation at 56° C.
(§3) 5α-dihydrotestosterone (DHT) was obtained from Steraloids. The antiandrogen hydroxyflutamide (OH-FLU) was kindly supplied by Drs. T. L. Nagabuschan and R. Neri (Schering Corporation, Kenilworth, U.S.A.).
(§4) Shionogi male mice bearing androgen-sensitive mammary tumors were obtained from Drs. Keishi Matsumoto, Osaka, Japan, and Yvonne Lefebvre, Ottawa, Canada. For primary culture, tumors were excised and washed in ice-cold sterile 25 mM Hepes buffer (137 mM NaCl; 5 mM KCl; 0.7 mM Na2HPO4; 10 mM glucose, pH 7.2). After mincing with scissors, the tumor minces were digested for 2 h at 37° C. in Hepes buffer containing 3.8 mg/ml collagenase (Clostridium, Boehringer), 1.5 mg/ml hyaluronidase II (Sigma), and 3% bovine serum albumin fraction V (Schwartz-Mann). Dispersed cells were collected by centrifugation (500×g for 10 min), washed twice by suspension in minimal essential medium (MEM) containing 5% dextran-coated charcoal-treated fetal calf serum (DCC-FCS), 1% non-essential amino acids, 10 IU/ml penicillin, 50 μg/ml streptomycin, and 100 nM dihydrotestosterone (DHT) (Steraloids).
(§5) Cells were plated in the same medium at a density of 75 000 cells/ml in 75 cm^2 flasks under an atmosphere of 5% carbon dioxide in air at 37° C. The medium was changed weekly. The steroids and antisteroids were dissolved in ethanol and kept in stock solutions chosen to yield final ethanol concentrations less than 0.01% in the culture medium.
(§6) Cells were subcultured at near-confidence by gentle digestion in a solution of 0.1% pancreatin (Flow Laboratories) in Hepes buffer containing 3 mM ethylenediaminetetraacetic acid (EDTA) (pH 7.2). Cells were pelleted by centrifugation, resuspended in culture medium, counted in a Coulter counter, and replated as described above. Soft agar cloning was performed as described (Stanley et al., Cell 10: 35-44, 1977) in the presence of 100 nM DHT.
(§7) Cells were plated in 24-well plates at a density of 20 000 cells/well. The indicated increasing concentrations of agents were added to triplicate dishes, and cells were grown for 10-12 days with changes of medium every 3-4 days. Cell number was measured by direct counting in a Coulter counter.
(§8) ED50 values of action of DHT and glucocorticoids were calculated according to a least-square regression as described (Rodbard, Endocrinology 94: 1427-1431, 1974). Statistical significance was calculated according to a multiple-range test (Kramer, Biometrics 12: 307-310,1956).

[2] = tested on: Shionogi mouse mammary carcinoma cells; assay: Antiandrogenic activity: inhibition of DHT-induced proliferation of Shionogi cells; format: cell-based; conditions: Table 4′, DHT-induced proliferation
Procedure: The manner in which the inhibition is determined is described in “Other Tests; B-Androgenic/Antiandrogenic Activity”. Lower numbers are desirable. ND means that a determination was not done.
as §1, §2, §3, §4, §5, §6, §7, §8

[3] = target: T1, human type 2 17β-hydroxysteroid dehydrogenase (Homo sapiens, UniProt P37059); assay: Enzymatic assay for type 2 17β-HSD; format: biochemical; conditions: Table 4′, bracketed values, 3 · 10^−8M
T1 construct: expressed in transfected cells; host or cells: 293 cells, transient transfection; microsomal fraction (100 000×g pellet)
T1 sequence (P37059 1-387): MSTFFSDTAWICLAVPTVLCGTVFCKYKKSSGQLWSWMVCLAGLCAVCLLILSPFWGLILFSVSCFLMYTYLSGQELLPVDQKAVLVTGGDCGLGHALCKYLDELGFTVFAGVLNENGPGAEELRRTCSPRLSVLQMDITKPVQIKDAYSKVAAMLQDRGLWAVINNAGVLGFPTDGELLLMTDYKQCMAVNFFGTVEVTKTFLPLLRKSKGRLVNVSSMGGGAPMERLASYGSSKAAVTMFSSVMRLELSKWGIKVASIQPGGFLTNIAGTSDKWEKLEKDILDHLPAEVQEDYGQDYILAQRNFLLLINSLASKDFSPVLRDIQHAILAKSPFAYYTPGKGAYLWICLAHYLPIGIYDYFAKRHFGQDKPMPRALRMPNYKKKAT
Procedure: The manner in which IC50 was determined is described in “Efficacy of Preferred Inhibitors: VI. Enzymatic assay for types 1, 2, and 3 17β-HSD and types 1 and 3 3α-HSD”. […] numbers of IC50 are desirable. Blank means that a determination was not done. […]
Enzyme sources. 293 cells transiently transfected with expression vectors encoding types 1, 2 and 3 17β-HSD (Luu-The et al., J. Steroid Biochem. Molec. Biol., 55: 581-587, 1995), types 1 and 2 5α-reductase (Luu-The et al., J. Invest. Dermatol., 102: 221-226, 1994) and types 1 and 3 3α-HSD (Dufort et al. Biochem. Biophys. Res. Commun. 228: 474-479, 1996), using the calcium phosphate procedure (Kingston et al., In: Current Protocols in Molecular Biology. Edited by E. M. Ausbel, R. Brent, R. E. Kingston, D. D. Moore, J. G. Seidman, J. A. Smith, K. Struhl. John Wiley & Sons, New York, pp. 9.1.1-9.1.9, 1991; Luu-The et al., J. Invest. Dermatol., 102: 221-226, 1994). For assays using cell subfractions, cells were sonicated in 50 mM sodium phosphate buffer (pH 7.4), containing 20% glycerol and 1 mM EDTA and centrifuged at 10 000×g for 30 min before centrifugation for 100 000×g for 1 h to separate the mitochondrial and microsomal fractions, respectively. The cytosol fractions (100 000×g supernatant) was used to determine type 1 activity while the microsomal fraction (pellet at 100 000×g) was used for measurement of types 2 and 3 17β-HSD activities.
Incubation. The enzymatic reaction was carried out at 37° C. in 1 ml of 50 mM sodium phosphate buffer, pH 7.4, containing 20% glycerol, 1 mM EDTA, and 2 mM cofactors (NADPH or AND^+) for 1 h in the presence of 0.1 μM ^14C-labeled substrate: estrone and 4-dione for types 1 and […] 17β-HSD, respectively, testosterone for type 2 17β-HSD as well as types 1 and 2 5α-reductases, DHT for types 1 and 3 3α-HSD activities, and the indicated concentration of inhibitor.
Extraction of metabolites, migration on TLC and quantification were as described above for the assay of type 5 17β-HSD.

[4] = target: T2, human type 5 17β-hydroxysteroid dehydrogenase (Homo sapiens, UniProt P42330); assay: Inhibition of human type 5 17β-HSD activity in transfected 293 cells; format: cell-based; conditions: Table 4′; read-out: Inhibition Type V 17β-HSD IC50
T2 construct: screen again a human placental λgt11 cDNA to get the full length cDNA clone; expressed in transfected cells; host or cells: human embryonal kidney 293 cells (pCMV / pCMV-neo vector)
T2 sequence (P42330 1-323): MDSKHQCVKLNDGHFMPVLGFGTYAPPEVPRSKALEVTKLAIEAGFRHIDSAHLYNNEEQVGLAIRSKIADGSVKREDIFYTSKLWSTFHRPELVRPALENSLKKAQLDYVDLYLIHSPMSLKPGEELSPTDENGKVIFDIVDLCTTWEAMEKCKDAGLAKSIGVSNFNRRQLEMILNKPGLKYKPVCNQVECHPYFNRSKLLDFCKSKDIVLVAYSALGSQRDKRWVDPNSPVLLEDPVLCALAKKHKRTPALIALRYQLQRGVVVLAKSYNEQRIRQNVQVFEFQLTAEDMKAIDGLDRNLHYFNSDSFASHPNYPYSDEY
Procedure: The manner in which IC50 was determined is described in “Efficacy of the Preferred Inhibitors”. Lower numbers for IC50 are desirable.
Using a oligoprimer pair (5′-GGA-AAT-CGT-GAC-AGG-GAA-TGG-ATT-CCA-AAC-AG-3′, 5′-GGA-ATT-CTT-TAT-TGT-ATT-TCT-GGC-CTA-TGG-AGT-GAG-3′) derived from human aldoketoreductase (Qin et al., J. Steroid Biochem. Molec. Biol. 46: 673-679, 1993) and polymerase chain reaction (PCR), we have amplified from a human placental λgt11 cDNA library (Clontech Laboratories Inc., Palo Alto, Calif.) a cDNA fragment that was used as probe to screen again a human placental λgt11 cDNA to get the full length cDNA clone. The amplified cDNA fragment was purified on agarose gel and labeled with [α^32P]dCTP (Amersham Corp.) using the random primer labeling kit from Pharmacia Inc. PCR amplification reaction medium contained 50 mM KCl, 10 mM Tris-HCl, pH 8.3, 0.1% gelatin, 1 mM MgCl2, 250 μM dNTP, 0.25 μM oligonucleotide primers, and 200 ng of DNA prepared from human placental λgt11 cDNA library. The aqueous phase was overlaid with 75 μL of mineral oil to avoid evaporation. The mixture was heated at 98° C. for 5 min, following the temperature reduction to 72° C., 1 unit of Taq DNA polymerase was added. Using a DNA Thermal Cycler (Perkin-Elmer Corp.), 30 cycles of amplification were carried out using a step program (94° C., 1 min; 60° C., 1 min; and 72° C., 1 min)/cycle.
Approximately 5×10^5 recombinant phage plaques were screened with 1.5×10^6 cpm/ml of the probe. Prehybridization was performed for 4 h at 42° C. in 50% formamide, 5× Denhardt's solution (1× Denhardt's being 0.02% polyvinyl pyrrolidone, 0.02 Ficoll, 0.02 bovine serum albumin), 5×SSPE (1×SSPE being 0.18M NaCl, 10 mM NaH2PO4, pH 7.4, 1 mM EDTA), 0.1% SDS, and 100 μg/ml yeast tRNA. The probe was denatured by heating at 100° C. for 5 min, before being added to the hybridization solution at 42° C. overnight. Filters were then washed twice at room temperature in 2×SSC (1×SSC being […], pH 7.0), 0.1% SDS, and twice in 0.1×SSC, 0.1% SDS at 60° C. Positive recombinant plaques were purified by replating twice and grown in liquid culture. Phage DNA were isolated by centrifugation for 90 min at 105,000×g, and DNA was then isolated by phenol extraction and precipitation with isopropanol (Karen et al. 1987; In: Current Protocols in Molecular Biology (F. M. Ausubel, R. Brent, E. Kingston, D. D. Moore, T. G. Seidman, T. A. Smith and K. Struhl, eds), Wiley & Sons, New York, pp. 1.13.1-1.13.6).
The phage DNA were digested with EcoRI restriction enzymes and the resulting cDNA fragments were inserted into the EcoRI site downstream to the cytomegalovirus (CMV) promoter of the pCMV vector (kindly provided by Dr. Matthew, Cold Spring Harbor, N.Y., USA). Recombinant pCMV plasmids were amplified in Escherichia Coli DH5α competent cells, and were isolated by alkaline lysis procedure (Maniatis et al., In: Molecular cloning: a laboratory manual, Cold Spring Harbor Laboratory., 1982). Sequencing of double-stranded plasmid DNA was performed according to the dideoxy chain termination method (Sanger et al., PNAS 74: 5453-5467, 1977) using a T7 DNA polymerase sequencing kit (Pharmacia LKB Biotechnology). To avoid errors, all sequences were determined by sequencing both strands of the DNA. Oligonucleotide primers were synthesized in our laboratory with a 394 DNA/RNA synthesizer (Applied Biosystem).
The pCMV vector contain 576 nucleotides of the pCMV promoter (followed by 432 bp of small t intron (fragment 4713-4570) and poly adenylation signal (2825-2536)of SV40, followed by 1989 bp of the Pvu II(628)-AatII (2617) fragment from pUC 19 vector (New England Biolabs) that contains an E. Coli origin of replication and an ampicillin resistance gene for propagation in E. Coli. […]

Row | Compound | Androgenic Activity Shionogi, Basal E^−6 ([1]; E^−6) [%] | Androgenic Activity Shionogi, Basal E^−7 ([1]; E^−7) [%] | Antiandrogenic Activity Shionogi, DHT E^−6 ([2]; E^−6 (10^−6 M)) [%] | Antiandrogenic Activity Shionogi, DHT E^−7 ([2]; E^−7) [%] | Inhibition Type 2 17β-HSD Activity [% Inh. at 3 · 10^−8M] [3] | inhibition ([3]; read-out: Inhibition Type 2 17β-HSD Activity [% Inh. at 3 · 10^−8M]) [%] | IC50 [4] [nM]
1 | CCC1(CC)CC[C@@]2(CC[C@H]3[C@@H]4CCc5cc(OC)ccc5[C@H]4CC[C@@]32C)OC1=O [EM-1419, 3-Methoxy-1,3,5(10)-estratrien-17(R)-spiro-2′-(5′,5′-diethyl-6′-oxo)tetrahydropyran] | −29 | 16 | −64 | 2 | [74] % | – | –
2 | CC1(C)CCC2(CCC3C4CC(=O)c5cc(O)ccc5C4CCC32C)OC1=O (stereo not shown) [EM-01608-D] | – | – | – | – | – | 58 | 3.6 ± 0.5
